Results on 45 compounds are retold here after PubChem BioAssay AID1189 (EPA DSSTox, 2008).

The source made the active and inactive calls.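 The calls were made as follows: active = a tumor-causing dose value with its tumor site reported for any sex and species group of a rodent or other animal cancer study; inconclusive = only studies judged inadequate by the national testing program; inactive = tested in at least one study, none positive.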

A short description of the data set: DSSTox (CPDBAS) Carcinogenic Potency Database Summary SingleCellCall Results. The note with it: animal chronic carcinogenicity bioassays, CPDB summary call. The method, boiled down: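 Literature-derived summary: each substance receives an overall carcinogenic/non-carcinogenic category drawn from long-term bioassays in rats, mice, hamsters, dogs or primates, using the most positive sex-species experiment and minimal evidence criteria.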
For `O=S(=O)([O-])[O-].[O]=[V+2]`, the result was inactive.

With `N[C@@H](Cc1cnc[nH]1)C(=O)O`, the outcome was inactive. With `c1ccc2cc(Nc3ccc(Nc4ccc5ccccc5c4)cc3)ccc2c1` the entry was “inactive; active”. Consider `O=NN1CCOC1`, for which the outcome is “active; inactive”. Consider `Cc1cc(O)ccc1O`, for which the outcome is “inactive; active”. Regarding `O=[N+]([O-])c1cccc2cccnc12`, the outcome was “active; inactive”.

With `CC(=O)[O][Sn]([c]1ccccc1)([c]1ccccc1)[c]1ccccc1`, the outcome is “inactive; active”. For `CN(CCCO)N=O`, the outcome is “active; inactive”. The same measure for `CC(=O)Nc1cccc2c1-c1ccccc1C2`: “inactive”. On to `N[C@@H](CCC(=O)NNc1ccc(CO)cc1)C(=O)O`, for which the outcome was inactive. With `COC(=O)C1=C(C)NC(C)=C(C(=O)OCCc2ccc(N3CCN(C(c4ccccc4)c4ccccc4)CC3)cc2)C1c1cccc([N+](=O)[O-])c1` (stereo not given) the entry was “inactive; active”. As to `COc1ccc(O)c(C(C)(C)C)c1`, the outcome is “active; inactive”. With `CCCCOC(=O)c1ccccc1C(=O)OCc1ccccc1` the entry was “active”; with `Cc1cc(O)c(C)c2c1OC(C)(CCCC(C)CCCC(C)CCCC(C)C)CC2` (stereo not given), “active”; with `Cc1cc(Cl)ccc1OCC(=O)O`, “inactive”.

For the compound `CCCCC(CC)COC(=O)CCCCC(=O)OCC(CC)CCCC` (stereo not given), the outcome was active.

Regarding `CCCCN(CC)C(=O)SCCC`, the outcome was inactive.

`[O-][Cl+]O`: the outcome was “inactive; active”. The same measure for `CCN(CC)C(=S)[S-].CCN(CC)C(=S)[S-].[Cd+2]`: “inactive”; for `CC(=O)OC/C=C(C)/C=C/C=C(C)/C=C/C1=C(C)CCCC1(C)C`: “active; inactive”.

As for `CC(=O)c1ccc(S(=O)(=O)NC(=O)NC2CCCCC2)cc1`, the result was inactive.

`CCO`: the result was active. With `Clc1ccc2c(c1)Oc1ccc(Cl)cc1O2` the entry was “inactive”; with `C=CC1CC=CCC1` (stereo not given), “active”; with `O=NN1CCC[C@H]1C(=O)O`, “inactive”. `Cc1cc(O)c(C(C)(C)C)cc1Sc1cc(C(C)(C)C)c(O)cc1C`: the outcome was inactive. Take `O=[N+]([O-])c1ccc(Nc2ccc(Nc3ccccc3)c(S(=O)(=O)O)c2)c([N+](=O)[O-])c1`: the outcome was “active; inactive”. For `O=CNc1nc(-c2ccc([N+](=O)[O-])o2)cs1`, the outcome was active. For the compound `COc1cc(/C=C/C(=O)OCCc2ccccc2)ccc1O`, the outcome is “inactive; active”.

Take `OC(Cn1cncn1)(Cn1cncn1)c1ccc(F)cc1F`: the outcome is “active; inactive”. With `CN=[N+](C)[O-]` the entry was “active”; with `S=C(SSSSSSC(=S)N1CCCCC1)N1CCCCC1`, “inactive”. The same measure for `Cc1ccccc1N`: “active”; for `CC(C)NCC(O)COc1cccc2ccccc12` (stereo not given): “inactive”; for `CNC[C@H](O)c1cccc(O)c1`: “inactive”. As to `CCNC(=O)N(CCO)N=O`, the result was active. Take `CC(=O)CN(CC(O)CO)N=O` (stereo not given): the outcome was active. With `O=c1ccc(=O)[nH][nH]1` the entry was “inactive; active”; with `CCNc1nc(Cl)nc(NC(C)C)n1`, “active”. The same measure for `CCn1c2ccccc2c2cc(N)ccc21`: “active”; for `CC(C)(C)NCC(O)c1ccc(O)c(CO)c1` (stereo not given): “active; inactive”; for `O=NN1CCCCC1C(=O)O` (stereo not given): “inactive”. With `C=CCN(CC(O)CO)N=O` (stereo not given) the entry was “active”; with `CC1CN(N=O)CC(C)O1` (stereo not given), “active”; with `NC(N)=NC(N)=NCCc1ccccc1`, “inactive”.
